Assay results: patent publication US20220184172A1, “AMPK/CASPASE-6 AXIS CONTROLS LIVER DAMAGE IN NONALCOHOLIC STEATOHEPATITIS” (The Regents of the University of California, priority 2019, published 2022)

Columns and labels:
[1] = tested on: C57BL/6J mice fed 45% HFD; details: 30 mg/kg twice per day for 7 days; cited from earlier work
[2] = tested on: CD-HFD-fed Flox and LAKO mice; test: A-769662 in CD-HFD-fed Flox and LAKO mice; format: in vivo; details: 25 mg/kg i.p. daily for 2 weeks
Description: FIGS. 13A-13I. A-769662 improves liver damage through AMPK activation in hepatocytes in NASH. C57BL/6J mice were fed with CD-HFD for 8 weeks. After 6 weeks of CD-HFD feeding, mice were intraperitoneally injected with 25 mg/kg A-769662 or vehicle daily for 2 weeks along with continuous CD-HFD feeding. FIG. 13A. Schematic diagram of experimental design. FIG. 13B-13C. Body weight (FIG. 13B) and liver weight (FIG. 13C) of indicated mice. n=7. FIG. 13D. Measurement of liver triglyceride (TG) of indicated mice. n=7. FIG. 13E. Quantification of the numbers of TUNEL-positive nuclei per field in liver sections shown in (FIG. 10B (W6), 10A). n=5-7 *, P<0.05, Student's unpaired t test. FIG. 13F-13H. Flox and LAKO mice were fed with CD-HPD for 8 weeks. After 6 weeks of CD-HFD feeding, mice were intraperitoneally injected with 25 mg/kg A-769662 or vehicle daily for 2 weeks along with continuous CD-HFD feeding. FIG. 13F. Paraffin-embedded liver sections of indicated mice were stained with TUNEL and DAPI as indicated therein; in the merged image sections, the different stains correspond to the grayscale shades as indicated in the single stained images to the left. Scale bar=50 μm. FIG. 13G. FIG. 13H. Serum ALT of indicated mice. n=4-5. *, P<0.05, two-way ANOVA. FIG. 13I. Expression of Adgre1 and Ccl2 in the liver of indicated mice. n=7. Data are shown as mean±SEM. *, P<0.05, Student's unpaired t test.
(§1) FIGS. 15A-15F. AMPK phosphorylates caspase-6 and inhibits its cleavage. FIG. 15A. Caspase-6 activity was measure in the lysates from isolated primary hepatocytes treated with vehicle or 250 μM BSA-conjugated palmitic acid (PA) or 50 ng/ml TNFα for 2 hrs. Data are shown as mean±SD. *, P<0.05, Student's unpaired t test. FIG. 15B. HepG2 cells were pretreated with 40 μM A-769662 for 1 hr, and then treated with 30 μg/ml cycloheximide (CHX) and 50 ng/ml TNFα for 2 hrs. Cell lysates were subject to immunoblot (IB) analysis. FIG. 15C. […] Quantification of IB analysis in FIG. 15D. n=3. *, P<0.05, two-way ANOVA. […] Quantification of IB analysis in FIG. 5K. n=3. […]

[3] = tested on: procaspase-6 cleavage in HepG2 cells; test: Procaspase-6 cleavage induced by TNFα and CHX in HepG2 cells (IB); format: cell-based; details: 40 μM pretreatment 1 hr, then 30 μg/ml CHX and 50 ng/ml TNFα 2 hrs
Description: as §1, with “15C. In vitro kinase assay using purified caspase-6-mycexpressed in HEK293T cells, and recombinant AMPKα1β1γ1 active kinase. FIGS. 15D-15E. Flox and LAKO mice were fed with CD-HFD for 8 weeks. After 6 weeks of CD-HFD feeding, mice were intraperitoneally injected with 25 mg/kg A-769662 or vehicle daily for 2 weeks along with continuous CD-HFD feeding. FIG. 15D.” for “15C.”
Western blot was performed as previously described(11). […] Supernatants were collected and analyzed with BCA (Thermo Scientific) to quantify protein content. […] Individual proteins were detected with specific antibodies and visualized on film using horseradish peroxidase-conjugated secondary antibodies (Fisher Scientific) and SuperSignal West Pico PLUS Chemilunminescent Substrate (Thermo Scientific).

N#Cc1c(O)c2c(-c3ccc(-c4ccccc4O)cc3)csc2[nH]c1=O [A-769662]
hepatic triglycerides [1]: reduced | procaspase-6 cleavage (liver lysates) ([2]; Flox mice): decreased | procaspase-6 phosphorylation (liver lysates) ([2]; Flox mice): significantly increased | number of apoptotic cells (TUNEL) ([2]; LAKO mice): did not decrease | procaspase-6 cleavage [3]: significantly inhibited
